Our source for the AC50 values is PubChem BioAssay AID1259420 (Broad Institute, 2018).

This experiment concerns Toxoplasma gondii growth in host cells, no IFN-gamma. The experiment in a line: compound activity on host-cell Toxoplasma growth – dose response (AID 1259420).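 Note: host cells were HeLa; final incubation lasted 72 hours.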

SMILES strings stand for the structures. Several values for one entry are separate records, joined by “and”; a condition that tells them apart may be missing. Identical values can stand only once. Results filed as inconclusive are left out. Activity calls are given as the source filed them. The rule behind the calls is not given here.

Usually AC50 stands for the midpoint of the concentration-response curve, whichever way the signal moves. Turning to `Clc1cncc(OC[C@H]2CO[C@@H]3CN(Cc4cccs4)C[C@@H]23)c1`, the AC50 was > 39 µM (inactive). The same measure for `O=C(c1ccc(F)cc1)N1CC(=O)N2[C@@H](CO)[C@H](c3ccc(C#CCC4CCCC4)cc3)[C@@H]2C1`: 18.6 µM and 22.6 µM; for `CC(C)CC#Cc1ccc([C@@H]2[C@@H](CO)N3C(=O)CN(C(=O)c4cccc(F)c4)C[C@@H]23)cc1`: 16.4 µM and 13.5 µM; for `Cc1ccccc1S(=O)(=O)N1CCCCN2[C@H](CO)[C@H](c3ccc(C#CCN(C)C)cc3)[C@H]2C1`: 33.7 µM.

Consider `O=C(c1cccc(F)c1)N1CCCCN2[C@H](CO)[C@H](c3ccc(C#CC4(O)CCCC4)cc3)[C@H]2C1`, for which the half-maximal activity concentration (AC50) is 32.1 µM. Consider `O=C(NC1CCCCC1)N1C[C@@H]2N[C@H](C1)C2c1ccc(-c2ccc(F)cc2)cc1` (some centres not stated), for which the AC50 is 23 µM. As for `COc1ccccc1C1CN(Cc2cccc(O)c2)Cc2ccccc2O1` (configuration not stated), the AC50 was 22.8 µM. For `COc1ccccc1S(=O)(=O)N1CC[C@@H]2[C@@H](CO)Nc3ccc(-c4ccc(C#N)cc4)cc3[C@@H]21`, the AC50 was 19.8 µM. The same measure for `CC(C)NC(=O)[C@H]1C[C@H]2CCN(CCOCc3ccccc3)C[C@@H]2O1`: > 39 µM (inactive).

As for `CCc1cnc(N2[C@H](C#N)[C@H](c3ccc(C#Cc4ccccc4F)cc3)[C@@H]2CO)s1`, the AC50 was 11.3 µM. The value for `COCCN1C(=O)CCC12CCC(NC(=O)c1cc(C)on1)CC2` (configuration not stated) was > 39 µM (inactive); that for `Cc1ccc(S(=O)(=O)N2CC[C@H]3[C@@H](CO)N(C)c4ccc(-c5ccccc5F)cc4[C@H]32)cc1` was > 20 µM (inactive); that for `C/C=C/c1ccc(C2[C@H]3CNC[C@@H]2N3C(=O)NC2CCCCC2)cc1` (some centres not stated) was 13.3 µM.

Turning to `Cc1cccc(OCC(=O)N2CCC3(CC2)Nc2ccc(Cl)cc2-n2cccc23)c1`, the AC50 is 13.7 µM. The same measure for `Cc1ccc(S(=O)(=O)N2CC[C@@H]3[C@@H](CO)Nc4ccc(-c5cccc(C(=O)N(C)C)c5)cc4[C@@H]32)cc1`: 13.8 µM; for `Cc1ccccc1-c1ccc2c(-c3ncc(C(=O)NCCN(C)C)s3)noc2c1`: 24.7 µM; for `CCCCN(C)C(=O)c1cnc(-c2noc3cc(NCC4CC4)ccc23)s1`: 20.4 µM. With `O=C(CC1CC1)N1CC[C@@H]2[C@@H](CO)Nc3ccc(-c4ccc(F)cc4)cc3[C@@H]21`, the AC50 was 20.2 µM. For `Cc1cc(C(=O)Nc2ccc3c(c2)C(=O)N(C)[C@H]2CC[C@H](CC(=O)NCc4ccc(-c5ccccc5)cc4)O[C@H]2CO3)no1`, the concentration at half-maximal activity (AC50) is 14 µM.

On to `CN1c2ccc(-c3ccccc3)cc2[C@@H]2[C@@H](CCN2C(=O)NC2CCCCC2)[C@H]1CO`, for which the half-maximal activity concentration (AC50) was 8.76 µM. The value for `CN1C(=O)c2cc(NC(=O)Cc3cccs3)ccc2OC[C@H]2O[C@@H](CC(=O)NCc3ccc(-c4ccccc4)cc3)CC[C@@H]21` was 20 µM and > 39 µM (inactive); that for `O=C1CC(c2ccncc2)C2(CCN(Cc3nccs3)CC2)N1` (configuration not stated) was > 39 µM (inactive); that for `CC(C)C#Cc1ccc([C@@H]2[C@H]3CN(C(=O)NC4CCCC4)CC(=O)N3[C@H]2CO)cc1` was > 39 µM (inactive).

`CC(C)C#Cc1ccc([C@H]2[C@@H](C#N)N(C(=O)c3cccc(F)c3)[C@H]2CO)cc1`: the AC50 was 26.4 µM.

As to `Cc1ccc(Nc2nc(N)nc(CN3CCc4ccccc4C3)n2)cc1`, the AC50 is > 10 µM (inactive). In the case of `COc1ccccc1CN1CC[C@@H]2[C@H](CO)Nc3ccc(-c4cccc(C(=O)N(C)C)c4)cc3[C@@H]21`, the concentration at half-maximal activity (AC50) was 13.6 µM. The value for `C/C=C/c1ccc(C2[C@H]3CNC[C@@H]2N3Cc2cc(F)ccc2F)cc1` (some centres not stated) was 11.4 µM; that for `CC(C)(Cc1ccc2ccccc2c1)NC[C@@H](O)COc1cccc(Cl)c1C#N` was 12.3 µM; that for `C/C=C/c1ccc([C@H]2[C@@H](C#N)N(C(=O)NC3CCCCC3)[C@H]2CO)cc1` was 20.9 µM.

With `Cc1ccccc1S(=O)(=O)N1CC[C@@H]2[C@H]1c1cc(-c3cccc(F)c3)ccc1N(C)[C@H]2CO`, the AC50 is 10.7 µM. The value for `CSCc1noc(CN2CCCC3(C2)CN(C)C(=O)O3)n1` (configuration not stated) was > 39 µM (inactive); that for `COc1cccc(-c2ccc(C3[C@H]4CNC[C@@H]3N4Cc3nccs3)cc2)c1` (some centres not stated) was 18.7 µM.

In the case of `O=C1CNC[C@H]2[C@@H](c3ccc(Br)cc3)[C@H](CO)N12`, the AC50 was 35.9 µM. The same measure for `O=S(=O)(c1ccccc1F)N1CC[C@H]2[C@H](CO)Nc3ccc(C4=CCCCC4)cc3[C@H]21`: 12.4 µM; for `COc1cccc(-c2ccc(C3[C@@H]4CN(S(=O)(=O)Cc5ccccc5)C[C@H]3N4)cc2)c1` (some centres not stated): 16.9 µM and 13.1 µM; for `COc1ccc(S(=O)(=O)N2CCCCN3[C@H](CO)[C@@H](c4ccc(C#CCC(C)C)cc4)[C@H]3C2)cc1`: 12.8 µM and 7.95 µM. The value for `Cc1cc(C)cc(S(=O)(=O)N2CCC3(CC2)NCCN=C3NCc2ccc(C(F)(F)F)cc2)c1` was 18.7 µM.

On to `COc1ccccc1CN1CC[C@@H]2[C@H]1c1cc(-c3cccc(C(=O)N(C)C)c3)ccc1N[C@@H]2CO`, for which the half-maximal activity concentration (AC50) was 20.2 µM. As for `O=C(NC1CCC12CCN(Cc1ccoc1)CC2)c1cnccn1` (configuration not stated), the AC50 was > 39 µM (inactive).

Consider `COc1cc(N2CCO[C@H]3[C@@H](Oc4ncccc4F)CC[C@H]32)ncn1`, for which the AC50 was 6.3 µM. With `C[C@H](O[C@H]1OCCN(Cc2n[nH]c(=O)[nH]2)[C@H]1c1ccc(F)cc1)c1cc(C(F)(F)F)cc(C(F)(F)F)c1`, the AC50 was 21.5 µM. The value for `COc1ccccc1NC(=O)N1C[C@H](O)COC[C@@H]2O[C@@H](CC(=O)N3CCC(Cc4ccccc4)CC3)CC[C@H]21` was > 39 µM (inactive). Turning to `CCN(CC)CCO[C@H]1CC[C@@]2(C)C(=CC[C@@H]3[C@@H]2CC[C@]2(C)C(=O)CC[C@@H]32)C1`, the AC50 was > 39 µM (inactive). The same measure for `Cc1cc(C)n(C)c(=O)c1C(=O)N1CCOC(C(F)(F)F)C1` (configuration not stated): > 39 µM (inactive); for `CCCCOc1ccc2c(=O)c(-c3cc(C(=O)OC)oc3C)c(C(F)(F)F)oc2c1C`: 8.86 µM and 8.94 µM. The value for `COc1ccc(NC(=O)N2CCCCN3[C@H](C2)[C@@H](c2ccc(-c4ccccc4F)cc2)[C@@H]3CO)cc1` was 35.8 µM.

In the case of `Cc1ccc(CNC2=NCCNC23CCN(S(=O)(=O)c2ccc4c(c2)CCCC4)CC3)cc1`, the half-maximal activity concentration (AC50) is 23 µM. In the case of `C/C=C/c1ccc([C@H]2[C@H](CO)N3CCCCN(S(=O)(=O)c4ccc(OC)cc4)C[C@@H]23)cc1`, the half-maximal activity concentration (AC50) is 19.1 µM. For the compound `O=C(CCCCCNc1nc(=S)[nH]c2ccccc12)N1CCC(O)(c2cccc(C(F)(F)F)c2)CC1`, the AC50 was > 39 µM (inactive).

Consider `CC(C)C#Cc1ccc([C@H]2[C@@H](CO)N3C(=O)CN(S(=O)(=O)c4ccccc4)C[C@H]23)cc1`, for which the AC50 is > 39 µM (inactive).

For `N#Cc1ccc(-c2ccc([C@@H]3[C@@H]4CN(S(=O)(=O)Cc5ccccc5)C[C@H]3N4)cc2)cc1`, the AC50 was 9.96 µM. `CN(C)C(=O)c1ccc(-c2ccc3c(c2)[C@H]2[C@H](CCN2C(=O)C2CCCC2)[C@@H](CO)N3C)cc1`: the concentration at half-maximal activity (AC50) was 14.6 µM. Take `COc1cccc(NC(=O)N2CC(=O)N3[C@H](C2)[C@@H](c2ccc(C#CCC4CCCC4)cc2)[C@@H]3CO)c1`: the AC50 is 15.8 µM and 22.4 µM. As to `O=C(NCCN1CCCC1)[C@H]1[C@H](CO)[C@H]2Cn3c(cccc3=O)[C@H]2N1Cc1ccccn1`, the AC50 is > 39 µM (inactive). As to `C=CCN1C(=O)COC2(CCN(Cc3ccc(C)s3)CC2)C1C` (configuration not stated), the AC50 is > 39 µM (inactive).

On to `CCc1ccccc1S(=O)(=O)N1CCc2nc(-c3ccc(OC)cc3)sc2C1`, for which the AC50 was 4.35 µM. The same measure for `COc1cccc(-c2ccc([C@@H]3[C@H]4CN(C(=O)c5cccnc5)CC(=O)N4[C@H]3CO)cc2)c1`: > 39 µM (inactive); for `CN1C(=O)c2cc(NC(=O)c3cccc(F)c3)ccc2OC[C@@H]2O[C@H](CC(=O)NCC3CCCCC3)CC[C@@H]21`: > 39 µM (inactive); for `CCc1cc(C(=O)Nc2ccc(C)cc2-c2cc(C)[nH]n2)c2c(C)noc2n1`: 18.2 µM. The value for `CN1CCC2(C=C(C(=O)N3CCCC3)c3ccccc32)CC1` was > 39 µM (inactive); that for `COc1cccc(S(=O)(=O)N2CCCCN3[C@H](C2)[C@H](c2ccc(C#CCC(C)C)cc2)[C@@H]3CO)c1` was 11.9 µM and 15.5 µM; that for `O=C(NC1CCCC1)[C@H]1[C@H](CO)[C@H]2Cn3c(ccc(C4=CCCCC4)c3=O)[C@@H]1N2CC1CC1` was > 39 µM (inactive). The same measure for `Cc1cc(Nc2cc(N3CCN(C)CC3)nc(Sc3ccc(NC(=O)C4CC4)cc3)n2)n[nH]1`: 18.7 µM; for `CCn1c(C2CCCN(C(=O)CCN3CCCCCC3=O)C2)nn(C)c1=O` (configuration not stated): 29.4 µM; for `N#Cc1cccc(-c2ccc(C3[C@@H]4CN(C(=O)Nc5ccc(C(F)(F)F)cc5)C[C@H]3N4)cc2)c1` (some centres not stated): 14.4 µM and 14.6 µM. In the case of `COc1cccc(-c2ccc3c(c2)[C@@H]2[C@@H](CCN2C(=O)c2ccccc2F)[C@H](CO)N3C)c1`, the AC50 was 8.81 µM and 10.2 µM. The value for `CS(=O)(=O)NCc1cnc2n1CCN(Cc1cccs1)CC2` was 25.6 µM; that for `O=C(Nc1cccc(F)c1)N1CCCCN2[C@H](CO)[C@H](c3ccc(C#Cc4cccnc4)cc3)[C@@H]2C1` was 1.34 µM and 2.47 µM; that for `O=S(=O)(c1ccccc1F)N1CCC(c2nc3ccc(-c4ccncc4)cn3n2)CC1` was > 39 µM (inactive). The value for `C/C=C/c1ccc([C@H]2[C@@H](CO)N3CCCCN(S(=O)(=O)c4ccc(OC)cc4)C[C@@H]23)cc1` was 32.2 µM. Regarding `COc1cccc(-c2nc3c(s2)CN(S(=O)(=O)c2cc(C)ccc2C)CC3)c1`, the concentration at half-maximal activity (AC50) was 7.12 µM. The same measure for `COc1cccc(-c2ccc3c(c2)[C@H]2[C@H](CCN2S(=O)(=O)c2ccccc2F)[C@@H](CO)N3)c1`: 11.5 µM and 6.32 µM; for `Cn1cccc1C(=O)N1CCC2(CC1)CN(CC1CC1)C(=O)CO2`: 36.8 µM. For `CC(C)CC#Cc1ccc([C@@H]2[C@@H](CO)N3C(=O)CN(C(=O)Nc4cc(F)ccc4F)C[C@@H]23)cc1`, the AC50 was 17.1 µM.

On to `CN(C)C(=O)c1ccc(-c2ccc3c(c2)[C@@H]2[C@@H](CCN2C(=O)C2CCCC2)[C@H](CO)N3C)cc1`, for which the half-maximal activity concentration (AC50) was 10.9 µM.

Take `N#C[C@H]1[C@@H](c2ccc(-c3cccc(F)c3)cc2)[C@@H](CO)N1C(=O)NC1CCCC1`: the AC50 is > 39 µM (inactive).

As for `COc1cccc(S(=O)(=O)N2CCCCN3[C@H](CO)[C@@H](c4ccc(C#CCC(C)C)cc4)[C@@H]3C2)c1`, the AC50 is 19 µM.
